Test results taken from ChEMBL document CHEMBL4118021, “Studies of TAK1-centered polypharmacology with novel covalent TAK1 inhibitors” (Bioorg Med Chem, 2017).
Active and inactive are the calls of the source. The rule behind the calls is not given here.

Legend:
Type in all cases: cell-based
[1] = target: Serine/threonine-protein kinase 38 (Homo sapiens) (UniProt Q15208); assay: Inhibition of NDR1 in human SKCO1 cells at 1 uM after 4 hrs using biotin labeled DIKPDNLLLDSK probe by mass-spectrometric analysis relative to control
Serine/threonine-protein kinase 38 (Homo sapiens), sequence (Q15208 2-465 limits assumed): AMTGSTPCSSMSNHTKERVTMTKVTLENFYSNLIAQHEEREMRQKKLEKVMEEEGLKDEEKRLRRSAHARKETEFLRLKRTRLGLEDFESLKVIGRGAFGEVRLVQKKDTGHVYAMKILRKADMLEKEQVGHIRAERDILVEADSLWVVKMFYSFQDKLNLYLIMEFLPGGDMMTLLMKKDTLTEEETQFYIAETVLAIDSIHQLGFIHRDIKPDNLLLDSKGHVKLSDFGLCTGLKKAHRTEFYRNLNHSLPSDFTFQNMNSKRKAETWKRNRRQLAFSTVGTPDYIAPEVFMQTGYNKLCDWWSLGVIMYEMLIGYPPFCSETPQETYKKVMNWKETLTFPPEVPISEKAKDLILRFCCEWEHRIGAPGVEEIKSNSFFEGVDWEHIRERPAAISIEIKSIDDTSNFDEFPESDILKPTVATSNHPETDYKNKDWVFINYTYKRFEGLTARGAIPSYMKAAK

[2] = target: Mitogen-activated protein kinase 6 (Homo sapiens) (UniProt Q16659); assay: Binding affinity to MAPK6 in human NCI-H358 cells at 1 uM by mass spectrometry based pull down assay
[3] = target: T1, Serine/threonine-protein kinase D2 (Homo sapiens) (UniProt Q9BZL6); assay: Binding affinity to PRKD2 in human NCI-H358 cells at 1 uM by mass spectrometry based pull down assay
T1 sequence (whole entry): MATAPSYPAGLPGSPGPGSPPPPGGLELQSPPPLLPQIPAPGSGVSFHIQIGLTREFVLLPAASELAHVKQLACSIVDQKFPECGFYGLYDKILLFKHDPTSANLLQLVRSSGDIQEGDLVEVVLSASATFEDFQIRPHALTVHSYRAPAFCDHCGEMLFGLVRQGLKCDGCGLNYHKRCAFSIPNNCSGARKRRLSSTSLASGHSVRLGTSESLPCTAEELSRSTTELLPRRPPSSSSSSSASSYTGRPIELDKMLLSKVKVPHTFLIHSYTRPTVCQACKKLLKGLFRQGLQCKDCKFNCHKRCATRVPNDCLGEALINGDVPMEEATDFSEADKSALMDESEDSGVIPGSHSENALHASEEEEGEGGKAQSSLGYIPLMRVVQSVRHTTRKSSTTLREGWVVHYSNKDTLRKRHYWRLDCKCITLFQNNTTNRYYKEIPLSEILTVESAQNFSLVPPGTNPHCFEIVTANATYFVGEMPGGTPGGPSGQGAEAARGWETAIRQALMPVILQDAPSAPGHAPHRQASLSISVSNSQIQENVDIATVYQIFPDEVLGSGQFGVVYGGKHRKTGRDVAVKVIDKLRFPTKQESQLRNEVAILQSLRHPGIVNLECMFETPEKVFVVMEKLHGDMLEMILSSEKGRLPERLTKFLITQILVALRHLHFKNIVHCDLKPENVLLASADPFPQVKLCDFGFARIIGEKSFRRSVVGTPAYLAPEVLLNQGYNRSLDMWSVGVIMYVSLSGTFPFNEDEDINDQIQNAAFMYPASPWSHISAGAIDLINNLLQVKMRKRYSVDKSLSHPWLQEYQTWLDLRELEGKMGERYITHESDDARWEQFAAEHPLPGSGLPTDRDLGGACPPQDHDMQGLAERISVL

[4] = target: Clathrin heavy chain 1 (Homo sapiens) (UniProt Q00610); assay: Binding affinity to CLTC in human NCI-H23 cells at 1 uM by mass spectrometry based pull down assay
[5] = target: Serine/threonine-protein kinase WNK1 (Homo sapiens) (UniProt Q9H4A3); assay: Binding affinity to WNK1 in human NCI-H23 cells at 1 uM by mass spectrometry based pull down assay
Serine/threonine-protein kinase WNK1 (Homo sapiens), sequence (Q9H4A3 whole entry, looked up, the tested form may be a part): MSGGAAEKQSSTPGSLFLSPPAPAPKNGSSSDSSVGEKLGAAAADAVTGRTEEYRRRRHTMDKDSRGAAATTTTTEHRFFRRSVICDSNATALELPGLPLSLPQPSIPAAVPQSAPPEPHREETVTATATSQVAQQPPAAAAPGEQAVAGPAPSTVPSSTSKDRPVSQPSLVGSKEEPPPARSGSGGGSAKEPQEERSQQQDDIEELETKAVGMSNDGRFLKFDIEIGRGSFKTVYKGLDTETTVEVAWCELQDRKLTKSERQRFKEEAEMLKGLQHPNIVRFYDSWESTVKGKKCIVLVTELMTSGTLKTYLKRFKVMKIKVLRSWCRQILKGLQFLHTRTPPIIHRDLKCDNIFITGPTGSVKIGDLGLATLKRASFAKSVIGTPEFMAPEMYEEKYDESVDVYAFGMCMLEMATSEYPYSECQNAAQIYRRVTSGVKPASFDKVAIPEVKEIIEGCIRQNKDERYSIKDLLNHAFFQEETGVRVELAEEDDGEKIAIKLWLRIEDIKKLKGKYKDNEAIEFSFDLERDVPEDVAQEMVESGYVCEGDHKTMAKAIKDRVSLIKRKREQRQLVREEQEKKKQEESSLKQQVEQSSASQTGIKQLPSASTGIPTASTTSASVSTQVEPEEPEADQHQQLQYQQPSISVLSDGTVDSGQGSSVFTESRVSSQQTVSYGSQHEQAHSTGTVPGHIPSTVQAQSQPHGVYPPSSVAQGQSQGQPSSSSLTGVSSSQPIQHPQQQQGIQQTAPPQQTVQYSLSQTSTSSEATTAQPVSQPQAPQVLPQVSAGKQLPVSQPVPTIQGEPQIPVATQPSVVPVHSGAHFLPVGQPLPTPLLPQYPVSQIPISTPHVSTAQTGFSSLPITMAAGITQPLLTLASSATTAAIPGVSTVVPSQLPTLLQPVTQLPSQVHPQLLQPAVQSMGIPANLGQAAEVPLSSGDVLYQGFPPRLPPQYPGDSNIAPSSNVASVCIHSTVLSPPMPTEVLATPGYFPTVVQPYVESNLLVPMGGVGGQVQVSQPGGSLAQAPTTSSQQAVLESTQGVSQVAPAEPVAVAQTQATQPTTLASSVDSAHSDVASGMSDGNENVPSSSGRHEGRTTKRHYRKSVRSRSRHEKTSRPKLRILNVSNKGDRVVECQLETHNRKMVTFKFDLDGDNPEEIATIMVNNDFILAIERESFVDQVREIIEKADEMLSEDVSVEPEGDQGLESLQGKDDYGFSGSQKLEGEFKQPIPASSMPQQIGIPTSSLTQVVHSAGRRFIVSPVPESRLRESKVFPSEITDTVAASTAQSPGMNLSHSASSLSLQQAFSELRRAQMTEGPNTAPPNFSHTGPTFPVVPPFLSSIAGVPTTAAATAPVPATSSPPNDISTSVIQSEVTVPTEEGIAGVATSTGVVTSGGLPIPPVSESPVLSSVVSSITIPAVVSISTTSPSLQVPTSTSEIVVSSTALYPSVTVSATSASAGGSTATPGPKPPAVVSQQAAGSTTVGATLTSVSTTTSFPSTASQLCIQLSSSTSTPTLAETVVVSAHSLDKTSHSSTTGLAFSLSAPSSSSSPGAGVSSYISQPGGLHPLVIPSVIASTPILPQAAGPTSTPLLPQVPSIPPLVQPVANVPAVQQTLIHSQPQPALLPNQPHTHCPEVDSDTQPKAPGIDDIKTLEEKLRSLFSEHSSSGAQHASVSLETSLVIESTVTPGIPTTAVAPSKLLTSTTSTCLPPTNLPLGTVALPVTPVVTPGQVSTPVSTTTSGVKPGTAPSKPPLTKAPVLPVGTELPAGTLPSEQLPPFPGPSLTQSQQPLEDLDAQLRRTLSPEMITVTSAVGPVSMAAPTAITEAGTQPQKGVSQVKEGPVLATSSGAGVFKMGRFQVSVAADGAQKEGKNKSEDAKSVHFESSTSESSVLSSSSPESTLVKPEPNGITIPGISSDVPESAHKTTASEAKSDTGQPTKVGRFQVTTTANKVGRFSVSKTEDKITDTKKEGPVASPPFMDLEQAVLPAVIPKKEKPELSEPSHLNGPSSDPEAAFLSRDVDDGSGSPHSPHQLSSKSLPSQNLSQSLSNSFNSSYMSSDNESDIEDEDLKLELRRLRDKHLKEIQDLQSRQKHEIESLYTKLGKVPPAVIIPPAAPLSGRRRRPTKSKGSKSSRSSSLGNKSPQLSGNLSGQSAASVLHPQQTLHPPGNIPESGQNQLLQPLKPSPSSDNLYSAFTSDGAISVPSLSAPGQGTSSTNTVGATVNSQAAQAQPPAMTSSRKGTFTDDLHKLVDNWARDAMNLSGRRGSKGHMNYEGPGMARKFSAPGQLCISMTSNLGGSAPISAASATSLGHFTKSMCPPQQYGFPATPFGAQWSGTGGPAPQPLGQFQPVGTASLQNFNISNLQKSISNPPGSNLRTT

[6] = target: Glyoxalase domain-containing protein 4 (Homo sapiens) (UniProt Q9HC38); assay: Binding affinity to GLOD4 in human NCI-H358 cells at 1 uM by mass spectrometry based pull down assay
[7] = target: Heterogeneous nuclear ribonucleoprotein D0 (Homo sapiens) (UniProt Q14103); assay: Binding affinity to HNRNPD in human NCI-H358 cells at 1 uM by mass spectrometry based pull down assay
[8] = target: Phospholipid hydroperoxide glutathione peroxidase GPX4 (Homo sapiens) (UniProt P36969); assay: Binding affinity to GPX4 in human NCI-H23 cells at 1 uM by mass spectrometry based pull down assay
[9] = target: TGF-beta-activated kinase 1 and MAP3K7-binding protein 1 (Homo sapiens) (UniProt Q15750); assay: Binding affinity to TAB1 in human NCI-H23 cells at 1 uM by mass spectrometry based pull down assay
TGF-beta-activated kinase 1 and MAP3K7-binding protein 1 (Homo sapiens), sequence (Q15750 whole entry): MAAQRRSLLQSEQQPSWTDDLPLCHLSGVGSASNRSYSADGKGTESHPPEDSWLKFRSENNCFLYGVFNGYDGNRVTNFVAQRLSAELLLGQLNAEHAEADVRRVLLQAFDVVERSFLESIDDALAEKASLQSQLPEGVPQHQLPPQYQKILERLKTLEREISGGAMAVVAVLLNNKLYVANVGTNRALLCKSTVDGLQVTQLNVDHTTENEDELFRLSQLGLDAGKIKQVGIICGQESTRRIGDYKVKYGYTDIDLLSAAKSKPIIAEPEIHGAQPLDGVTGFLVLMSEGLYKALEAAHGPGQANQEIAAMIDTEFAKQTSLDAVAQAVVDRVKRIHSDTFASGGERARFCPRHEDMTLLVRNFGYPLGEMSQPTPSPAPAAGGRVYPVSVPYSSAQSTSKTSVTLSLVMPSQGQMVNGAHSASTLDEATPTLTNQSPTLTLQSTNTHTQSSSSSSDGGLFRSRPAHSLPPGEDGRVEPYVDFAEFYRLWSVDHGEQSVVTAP

[10] = target: 14-3-3 protein epsilon (Homo sapiens) (UniProt P62258); assay: Binding affinity to YWHAE in human NCI-H23 cells at 1 uM by mass spectrometry based pull down assay
14-3-3 protein epsilon (Homo sapiens), sequence (P62258 whole entry): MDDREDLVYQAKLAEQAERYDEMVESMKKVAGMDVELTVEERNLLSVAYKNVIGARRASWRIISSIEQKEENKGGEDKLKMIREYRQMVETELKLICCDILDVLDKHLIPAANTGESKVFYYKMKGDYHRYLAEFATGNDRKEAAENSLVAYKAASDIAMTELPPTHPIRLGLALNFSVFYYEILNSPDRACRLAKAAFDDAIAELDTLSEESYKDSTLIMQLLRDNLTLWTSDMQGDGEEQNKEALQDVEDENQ

[11] = target: N-acetyl-D-glucosamine kinase (Homo sapiens) (UniProt Q9UJ70); assay: Binding affinity to NAGK in human NCI-H23 cells at 1 uM by mass spectrometry based pull down assay
N-acetyl-D-glucosamine kinase (Homo sapiens), sequence (Q9UJ70 whole entry): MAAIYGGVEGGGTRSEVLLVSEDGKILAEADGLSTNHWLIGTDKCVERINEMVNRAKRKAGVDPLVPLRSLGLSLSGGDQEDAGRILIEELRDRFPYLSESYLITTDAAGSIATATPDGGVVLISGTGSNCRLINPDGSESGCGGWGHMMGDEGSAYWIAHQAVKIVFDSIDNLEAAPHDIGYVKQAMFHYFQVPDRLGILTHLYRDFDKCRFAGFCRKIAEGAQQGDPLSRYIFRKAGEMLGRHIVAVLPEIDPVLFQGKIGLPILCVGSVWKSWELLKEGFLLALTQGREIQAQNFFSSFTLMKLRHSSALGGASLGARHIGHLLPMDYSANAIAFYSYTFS

[12] = target: T2, 80S Ribosome (Homo sapiens) (UniProt P08865+P42677+P62753+P15880+P23396+P61247+P62701+P22090+P46782+P62081+P62241+P46781+P46783+P62280+P25398+P62277+P62263+P62841+P62244+P62249+P08708+P62269+P39019+P60866+P63220+P62266+P62847+P62851+P62854+P62979+P62857+P62273+P62861+P39023+P36578+P46777+Q02878+P18124+P62424+P62917+P32969+P27635+P62906+P62913+P30050+P26373+P40429+P50914+P61313+P18621+Q07020+Q02543+P84098+P46778+P35268+P62829+P62750+P83731+P61254+P61353+P46776+P46779+P47914+P62888+P62899+P62910+P49207+P42766+P18077+Q9Y3U8+P83881+P61927+P61513+P63173+P62891+P62945+P05388+P05386); assay: Binding affinity to RPL31 in human NCI-H23 cells at 1 uM by mass spectrometry based pull down assay
[13] = target: Small ribosomal subunit protein uS7m (Homo sapiens) (UniProt Q9Y2R9); assay: Binding affinity to MRPS7 in human NCI-H358 cells at 1 uM by mass spectrometry based pull down assay
[14] = target: Aldehyde dehydrogenase family 3 member A2 (Homo sapiens) (UniProt P51648); assay: Binding affinity to ALDH3A2 in human NCI-H23 cells at 1 uM by mass spectrometry based pull down assay
Aldehyde dehydrogenase family 3 member A2 (Homo sapiens), sequence (P51648 whole entry): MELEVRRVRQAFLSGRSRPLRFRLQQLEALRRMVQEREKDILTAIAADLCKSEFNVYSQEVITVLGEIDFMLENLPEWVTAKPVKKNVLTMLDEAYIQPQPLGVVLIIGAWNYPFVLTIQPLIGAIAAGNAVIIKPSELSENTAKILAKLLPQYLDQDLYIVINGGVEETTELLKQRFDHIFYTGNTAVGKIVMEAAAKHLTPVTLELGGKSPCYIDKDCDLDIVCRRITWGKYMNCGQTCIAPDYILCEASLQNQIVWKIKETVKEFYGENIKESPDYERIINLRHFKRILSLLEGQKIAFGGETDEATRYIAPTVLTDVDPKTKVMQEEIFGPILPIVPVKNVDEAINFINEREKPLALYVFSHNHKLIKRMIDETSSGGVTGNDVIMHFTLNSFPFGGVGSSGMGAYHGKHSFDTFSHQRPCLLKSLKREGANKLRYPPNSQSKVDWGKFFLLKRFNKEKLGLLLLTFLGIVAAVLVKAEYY

[15] = target: ADP/ATP translocase 2 (Homo sapiens) (UniProt P05141); assay: Binding affinity to SLC25A5 in human NCI-H23 cells at 1 uM by mass spectrometry based pull down assay
ADP/ATP translocase 2 (Homo sapiens), sequence (P05141 whole entry): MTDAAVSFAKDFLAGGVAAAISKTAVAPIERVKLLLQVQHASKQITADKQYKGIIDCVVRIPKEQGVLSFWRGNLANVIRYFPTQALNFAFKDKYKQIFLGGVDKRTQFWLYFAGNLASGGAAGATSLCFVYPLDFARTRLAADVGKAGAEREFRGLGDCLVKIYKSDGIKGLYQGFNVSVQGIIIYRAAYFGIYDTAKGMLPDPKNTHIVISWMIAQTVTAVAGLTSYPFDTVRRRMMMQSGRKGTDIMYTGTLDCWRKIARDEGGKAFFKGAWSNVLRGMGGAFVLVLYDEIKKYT

NCI-H23 = assay: Binding affinity to PSMA5 in human NCI-H23 cells at 1 uM by mass spectrometry based pull down assay
[16] = target: Lactoylglutathione lyase (Homo sapiens) (UniProt Q04760); assay: Binding affinity to GLO1 in human NCI-H358 cells at 1 uM by mass spectrometry based pull down assay
Lactoylglutathione lyase (Homo sapiens), sequence (Q04760 2-184 limits assumed): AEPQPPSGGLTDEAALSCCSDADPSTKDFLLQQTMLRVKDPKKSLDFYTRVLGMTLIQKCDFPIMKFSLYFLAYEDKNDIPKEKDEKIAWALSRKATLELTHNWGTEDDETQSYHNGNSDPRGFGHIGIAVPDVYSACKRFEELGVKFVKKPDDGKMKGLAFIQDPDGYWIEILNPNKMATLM

[17] = target: Small ribosomal subunit protein mS23 (Homo sapiens) (UniProt Q9Y3D9); assay: Binding affinity to MRPS23 in human NCI-H358 cells at 1 uM by mass spectrometry based pull down assay
[18] = target: T2, 80S Ribosome (Homo sapiens); assay: Binding affinity to RPL8 in human NCI-H23 cells at 1 uM by mass spectrometry based pull down assay
[19] = target: Leucine-rich PPR motif-containing protein, mitochondrial (Homo sapiens) (UniProt P42704); assay: Binding affinity to LRPPRC in human NCI-H358 cells at 1 uM by mass spectrometry based pull down assay

Activity [2]	Activity [3]	Activity [4]	Activity [5]	Activity [6]	Activity [7]	Activity [8]	Activity [9]	Activity [10]	Activity [11]	Activity [12]	Activity [13]	Activity [14]	Activity [15]	Activity [16]	Activity [17]	Activity [18]	Activity [19]	Structure (SMILES)	inhibition [1]	Activity (NCI-H23)
–	–	–	–	–	–	–	–	–	–	–	–	–	–	–	–	–	–	C=CC(=O)Nc1ccccc1Nc1nc(Nc2ccc(N3CCN(C)CC3)cc2)ncc1Cl	-4.9%	–
Active	Active	Active	Active	Active	Active	Active	Active	Active	Active	Active	Active	Active	Active	Active	Active	Active	Active	C=CC(=O)Nc1ccccc1Nc1nc(Nc2ccc(N3CCN(CCOCCOCCOCCNC(=O)CCCC[C@@H]4SC[C@@H]5NC(=O)N[C@@H]54)CC3)cc2)ncc1Cl	–	Active
